# Measured values taken from US20090221539A1, “METHOD OF DETECTING AND REDUCING BOAR TAINT USING NUCLEAR RECEPTORS” (UNIVERSITY OF GUELPH, priority 2005, published 2009).
# Like-named read-outs stand apart in the source and are kept apart here.
# How the values were obtained:
# [1] = tested on: pgCAR; assay: Dual luciferase reporter assay in HepG2 cells transiently transfected with pgCAR; format: cell-based, pig; details: for reporter gene expression (fold-change relative to DMSO vehicle): pgCAR, CYP2B6 response element firefly luciferase, hormones at 10 μM
# Description: Dual Luciferase Reporter Assay: Pig, human ? mouse ? receptors were tested in a transient transfection assay against a panel of hormones and xenobiotics. Hormones and TCPOBOP were tested at 10 μM with the exception of CITCO at 1 μM. The effects of ligands are expressed as fold-change relative to vehicle (dimethylsulfoxide 1:2000) control for each receptor.
# The dual luciferase reporter assay (Promega) was used as a screening tool to identify ligands (hormone and xenobiotic compounds) that regulate the nuclear receptor CAR. The dual luciferase assay consists of 3 plasmids. A pgCAR or hCAR or mCAR expression plasmid containing the full length wild type isoform is used together with a reporter construct, consisting of the CAR response gene promoter element from CYP2B6 regulating the expression of the firefly luciferase gene. […] The Promega Dual-Luciferase Reporter Assay System (Cat#E11960) was used to determine the hormones and xenobiotics that modulate the CAR responsive genes by measuring the amount light produced by the firefly luciferase gene construct.
# The dual luciferase assay method uses HepG2 cells (that express RXR) plated at 50% confluence onto 96 well cell culture plates. The cells are transiently transfected after 1 day with pgCAR expression plasmid, reporter plasmid (containing the CAR response element) and the internal control plasmid, which are pooled treatments to ensure all samples receive the same amount of plasmids. On day two, control or ligand supplemented media are added to cells (ligands from FIG. 4 at 10 ug/ml in DMSO) for a total of n=15 for each ligand. On day four, the media is removed and cells are washed with PBS to remove detached cells and remaining media. The cell monolayer is then treated with Passive lysis buffer and the cell lysate is then transferred to a test tube for analysis. Luminometer readings are made on a Berthold Detection systems Sirius single tube luminometer with dual injectors. The test tube is loaded into the measurement chamber and the LARII luciferase reagent is injected into the cell lysate and a 10 second firefly luciferase relative light unit (RLU) measurement is recorded. The Stop & Glo reagent is then injected into the same tube and the Renella luciferase RLU is measured. The ratio of reporter to control luminescence is used to normalize transfection efficiencies between plates; the normalized values are then statistically analyzed by t-tests to determine how efficiently CAR activates the firefly luciferase reporter gene in response to ligand treatment.
# [2] = tested on: 3β-HSD; details: boar hepatocytes, ligand 8 or 10 hours, vs DMSO
# Description: (§5) Boar hepatocytes treated with ligands for 8-10 hrs prior to RNA isolation and real time PCR analysis. B-actin was used as the housekeeping gene and DMSO (no hormone treatment) was used as the calibrator. For CYP2A6, CYP2E1, SULT1A1 and UGT2B the primer inefficiencies should not affect the resultant fold changes in this experiment since all hepatocyte treatments come from a single boar and analysis is compared to the no hormone DMSO control. This analysis should be valid since the calibrator is from the same pool of cells.
# (§6) Primary boar hepatocytes were treated with seven different CAR ligands identified in objective 2 and 5, with DMSO used as the vehicle control. Primary cells were plated on 60 mm dishes and treated with ligand. The treatments were incubated for 8 or 10 hours and the RNA was extracted from cells in each treatment. Real Time PCR primers were designed for seven genes of interest CYP2A6, CYP2E1, 3β-HSD, 3α-HSD, SULT2A1, SULT1A1, UGT2B, CYP2B6 and pgCAR, with B-actin used as the housekeeping gene for ΔΔCT analysis.
# [3] = tested on: SULT2A1; details: boar hepatocytes, ligand 8 or 10 hours, vs DMSO
# Description: as §5, §6
# [4] = tested on: UGT2B; details: boar hepatocytes, ligand 8 or 10 hours, vs DMSO
# Description: as §5, §6
# [5] = tested on: SULT2A1; assay: SULT2A1 activity in primary porcine Leydig cells after treatment with nuclear receptor ligands ([3H]DHEA to DHEAS conversion); format: cell-based, pig; details: primary Leydig cells of mature Yorkshire boars, 24 hours; CITCO 1 μM, TCPOBOP 250 nM, phenobarbital 2 mM, phenytoin 50 μM, rifampicin 10 μM, PCN 10 μM, dexamethasone 0.1 μM, lithocolic acid 100 μM; vs control
# Description: FIG. 1: Effect of nuclear receptor ligands on SULT2A1 activity in porcine Leydig cells. Primary porcine Leydig cells were isolated from mature Yorkshire boars and the SULT2A1 activity was determined. Leydig cells were cultured in the presence of; CITCO (1 μM), TCPOBOP (250 nM), Phenobarbital (2 mM), Phenytoin (50 μM), Rifampicin (10 μM), PCN (10 μM), Dexamethasone (0.1 μM), Cholic Acid (100 μM), and Lithocolic Acid (100 μM) for 24 hours. Treatments are grouped according to the nuclear receptor affected: constitutive androstane receptor (CAR), pregnane X receptor (PXR), glucocorticoid receptor (GR) and farnesoid X receptor (FXR). Values are presented as means±SE of 3 independent experiments with significant differences indicated (*P<0.05).
# Mature Yorkshire boars of 175±6 days obtained from the Arkell Swine Research Station at the University of Guelph, Guelph, ON were used for the isolation of Leydig cells. After slaughter, the testes were immediately removed and transported to the laboratory within five minutes. Testicular tissue was sliced into pieces of 1 cm^2×2-3 mm thickness and 100 g of tissue was incubated for 20 minutes in a shaking water bath at 37° C. with 1 mg/ml collagenase (type 1A), 50 μg/ml DNase and 50 μg/ml trypsin inhibitor in 250 ml of TC 199 Media containing 1 g/L bovine serum albumin and 0.1 g/L L-glutamine. Preparations of purified Leydig cells were obtained by layering the collagenase—dispersed testicular cells onto discontinuous Percoll gradients supplemented with HBSS. The preparations were then centrifuged at 1500×g for 15 minutes at 4° C. and the cells present at the 40-60% interface were collected as outlined previously (Raeside & Renaud 1983). Cell viability was determined by trypan blue exclusion. The typical viability of Leydig cells after this procedure was greater than 90%.
# To further understand the molecular mechanisms that control SULT2A1 gene transcription, various nuclear receptor ligands were evaluated for their ability to induce SULT2A1 activity in Leydig cells. Aliquots of re-suspended Leydig cells (1×10^6 cells/ml) in TC 199 Media mixture were plated in 24 well plates. The Leydig cells were then treated with various nuclear receptor ligands as outlined in the figure legends in less than 0.5% DMSO vehicle and incubated at 37° C. in 95% air and 5% CO2 for 24 hours.
# After the 24 h incubation period, the media was aspirated and approximately 10,000 cpm of [^3H] […] The cells were incubated for 4 h and the media was removed and immediately extracted by Sep-Pak C18 solid-phase chromatography, as described above. Sulfotransferase activity was assayed by measuring the conversion of [^3H] […] DHEAS (conjugate) fractions by liquid scintillation counting. […]
# [6] = tested on: 3MI metabolism; assay: 3MI metabolism assay: production of HMOI and 3MOI in primary pig hepatocytes after inducer treatment; format: cell-based; details: for 3MI metabolism: CITCO 1.0 μM
# Description: (§1) Each data point represents results obtained from 3 separate experiments run in triplicate.
# (§2) Hepatocytes were prepared by a modification of a collagenase perfusion method described previously (Sinclair et al., 2005). Briefly, one hepatic lobe was immediately catheterized by selecting the largest vessel at the cut end. Blood was then flushed from the liver by perfusion with 25 mL/min of medium containing 10 mM hydroxyethyl piperazine ethane (HEPES), 1 mM EGTA and HBSS (pH 7.4) delivered at 37° C. The lobe was then perfused for 5 minutes with the same medium without EGTA and then with William's E Media (pH 7.4) containing 10 mM HEPES and 0.7 mg/mL collagenase type 1 for 10 to 25 minutes until the hepatocytes appeared to be fully dissociated.
# (§3) All remaining experimental procedures were carried out under sterile conditions. The lobe was gently minced with a scalpel to disassociate cells in attachment medium containing 10 mM HEPES, 10% (v/v) fetal bovine serum, 1% (v/v) penicillin-streptomycin and 50 Units/L insulin in William's E media (pH 7.4), at 4° C. Cells were filtered through gauze and centrifuged at 15×g for 3 minutes. The cell pellet was washed in attachment media and cell viability was determined by trypan blue exclusion. […] Hepatocytes were then plated on Primaria™ 60 mm tissue culture dishes (VWR International Ltd., Mississauga, ON) at a density of 2.25×10^6 cells in 3.0 mL attachment media, and kept in a incubator at 37° C. supplied with 95% air and 5% CO2. After 4 hours to allow for attachment of the cells, the medium was replaced with serum-free medium that contained 10 mM HEPES, 10 mM pyruvate, 0.35 mM proline, 1% (v/v) penicillin-streptomycin and 50 Units/L insulin in William's E media (pH 7.4) with treatments. For inducer experiments, hepatocytes were treated for 19 hours prior to the determination of P450 activities and 3MI metabolism.
# To measure 3MI metabolism in primary cultured hepatocytes, cells were incubated with 500 μM 3MI for 6 hours, after which an equal volume of acetonitrile was added to stop the reaction. The production of metabolites was then determined by HPLC analysis as previously described (Terner et al., in press). Formation of metabolites was determined by interpolation of standard curves made from authentic standards HMOI and 3MOI run in duplicate.
# [7] = tested on: pgCAR; assay: Dual luciferase reporter assay in primary boar hepatocytes transfected with pgCAR; format: cell-based, pig; details: primary boar hepatocytes with exogenous pgCAR expression plasmid
# Description: FIG. 11. Dose response analysis of CITCO ligand treatment in primary boar hepatocytes. Unlike HepG2 cells, primary hepatocytes have very low basal luciferase expression allowing for the detection of significant fold changes above no hormone control at lower doses.
# FIG. 12. Dose response analysis of Phenytoin ligand treatment in primary boar hepatocytes.
# FIG. 13. Dual luciferase assay of selected ligand in boar hepatocytes. Selected activators and repressors of pgCAR in HepG2 cells were tested in boar hepatocytes. […] Only reporter gene activations and not repressions are detectable in this cell model.
# Transfection experiments using the HepG2 cell line identified compounds that were able to alter pgCAR gene regulation. Experiments performed on primary mouse and human hepatocytes indicate that gene regulation has additional levels of complexity, and CAR is not constitutively active in vivo. This experiment uses a similar methodology as objective 2 except primary boar hepatocytes were used as the cell line. Hepatocytes were transfected with a reporter construct containing the CAR responsive element, an internal control Renilla luciferase construct, and pgCAR or an empty vector as control. Control experiments without pgCAR were conducted to determine if endogenous pgCAR in the hepatocytes could activate the reporter construct. […] The cascade of events leading to gene activation remains unclear.
# [8] = tested on: CYP2A6; assay: CYP2A6 activity (coumarin 7-hydroxylase, COH assay) in primary pig hepatocytes after inducer treatment; details: for CYP2A6 activity: isoproterenol 500 μM, CITCO 1.0 μM
# Description: as §1, §2, §3
# (§4) To determine the rate of p-nitrophenol (PNP) hydroxylase activity and coumarin 7-hydroxylase (COH) activity, hepatocytes were incubated with 500 μM PNP or 100 μM coumarin according to the procedures previously described (Terner et al, in press). Assays were validated to be linear with time and proportional to number of cells. Production of metabolites was determined in duplicate by interpolation of standard curves made from authentic standards p-nitrocatechol and 7-hydroxycoumarin.
# [9] = tested on: CYP2E1; assay: CYP2E1 activity (PNP hydroxylase assay) in primary pig hepatocytes after inducer treatment; details: isoproterenol 500 μM, hormones and rifampicin 10 μM, CITCO 1.0 μM
# Description: as §1, §2, §3, §4
# [10] = 3-week old male pig hepatocytes, isoproterenol 500 μM, hormones and rifampicin 10 μM, given as increase, FIG. 2 values as percent of control
# [11] = 3-week old male pig hepatocytes, hormones 10 μM, given as increase, FIG. 2 values as percent of control
# [12] = adult male hepatocytes, hormones and rifampicin 10 μM
# [13] = 3-week old male pig hepatocytes, given as increase, FIG. 2 values as percent of control
# [14] = adult male hepatocytes, isoproterenol 500 μM, estrone 10 μM, given as increase, FIG. 2 values as percent of control
smiles,measurement,setting,value
"C[C@@]12C=CC[C@H]1[C@@H]1CC=C3C[C@@H](O)CC[C@]3(C)[C@H]1CC2 [5,16-androstadien-3β-ol]",reporter gene expression (fold-change relative to DMSO vehicle),[1],significant repressions
"C[C@]12CCC(=O)C[C@@H]1CC[C@@H]1[C@@H]2CC[C@]2(C)[C@@H](O)CC[C@@H]12 [5α-DHT, 5α dihydrotestosterone]",3β-HSD gene expression,[2],significantly activated
same,SULT2A1 gene expression,[3],significantly activated
same,UGT2B gene expression,[4],significantly activated
C[C@]12CC[C@H](O)C[C@@H]1CC[C@@H]1[C@@H]2CC[C@]2(C)C=CC[C@@H]12 [5α-androsten-3β-ol],reporter gene expression (fold-change relative to DMSO vehicle),[1],significant repressions
"Clc1ccc(-c2nc3sccn3c2C=NOCc2ccc(Cl)c(Cl)c2)cc1 [CITCO, 6-(4-chlorophenyl)imidazo[2,1-b][1,3]thiazole-5-carbaldehyde O-(3,4-dichlorobenzyl)oxime]",SULT2A1 activity,[5],did not affect
same,3MI metabolism,[6]; 3-week old male hepatocytes,"did not increase CYP2E1 or CYP2A6 activity, or affect 3MI metabolism"
same,3MI metabolism,"[6]; adult male hepatocytes, rifampicin 10 μM","did not increase CYP2E1 or CYP2A6 activity, or affect 3MI metabolism"
same,activation of the luciferase reporter construct,[7],activated the reporter construct
same,dose at which CITCO significantly activates the pgCAR receptor,[1]; dose response 0.01-10.0,≥ 0.5 µM
same,reporter gene expression (fold-change relative to DMSO vehicle),[1],significant activation
"CC(=O)[C@H]1[C@H](C#N)C[C@H]2[C@@H]3CC=C4C[C@@H](O)CC[C@]4(C)[C@H]3CC[C@@]21C [PCN, Pregnenolone 16α-carbonitrile]",SULT2A1 activity,[5],only rifampicin resulted in a significant increase
CO[C@H]1/C=C/O[C@@]2(C)Oc3c(C)c(O)c4c(O)c(c(/C=N/N5CCN(C)CC5)c(O)c4c3C2=O)NC(=O)/C(C)=C\C=C\[C@H](C)[C@H](O)[C@@H](C)[C@@H](O)[C@@H](C)[C@H](OC(C)=O)[C@@H]1C [Rifampicin],decrease in CYP2A6 activity,"[8]; male, pig, hepatocytes, 19 h, 10 μM, pH 7.4",43±7%
same,production of 3MOI,[6]; [10],128±10%
same,production of the 3MI metabolite HMOI,[6]; [10],151±14%
"Clc1cnc(Oc2ccc(Oc3ncc(Cl)cc3Cl)cc2)c(Cl)c1 [TCBOPOP, 1,4-bis-[2-(3,5-dichloropyridyl-oxy)]benzene; 3,3′5,5′-tetrachloro-1,4-bis(pyridyl-oxy)benzene]",SULT2A1 activity,[5],did not affect
C[C@@]12CCC[C@H]1[C@@H]1CC[C@H]3C[C@@H](O)CC[C@]3(C)[C@H]1CC2 [androstanol],CYP2A6 activity,[8]; [11],did not alter
same,CYP2A6 activity,[8]; [12],did not alter
same,production of 3MOI,[6]; [10],did not affect
same,production of the 3MI metabolite HMOI,[6]; [10],did not affect
same,CYP2E1 activity,[9]; [13],did not alter
same,CYP2E1 activity,[9]; adult male hepatocytes,did not alter
C[C@]12CC[C@@H](O)C[C@@H]1CC[C@@H]1[C@@H]2CC[C@]2(C)C=CC[C@@H]12 [androstenol],production of 3MOI,[6]; [10],did not affect
same,production of the 3MI metabolite HMOI,[6]; [10],did not affect
C[C@]12CC[C@@H]3c4ccc(O)cc4CC[C@H]3[C@@H]1CCC2=O [estrone],HMOI production,[6]; [14],142±12%
CC(C)NCC(O)c1ccc(O)c(O)c1 (stereo not shown) [isoproterenol],production of 3MOI,[6]; [10],unaffected
same,production of the 3MI metabolite HMOI,[6]; [10],150±13%
same,3MOI production,"[6]; adult male hepatocytes, isoproterenol 500 μM, estrone 10 μM",did not alter
same,HMOI production,[6]; [14],139±12%
O=C1NC(=O)C(c2ccccc2)(c2ccccc2)N1 [phenytoin],SULT2A1 activity,[5],significant increase
same,activation of the luciferase reporter construct,[7],activated the reporter construct
C[C@]12CC[C@H]3[C@@H](CCC4=CC(=O)CC[C@@]43C)[C@@H]1CC[C@@H]2O [testosterone],CYP2A6 activity,[8]; [11],did not alter
same,CYP2A6 activity,[8]; [12],did not alter
same,production of 3MOI,[6],did not affect
same,production of the 3MI metabolite HMOI,[6],did not affect
same,CYP2E1 activity,[9]; [13],did not alter
same,CYP2E1 activity,[9]; adult male hepatocytes,did not alter
